How the values were obtained:
9J10/14-3-3ε interaction [1] = molecular target: T1, 9J10/14-3-3ε interaction (Homo sapiens, UniProt P62258); test: competitive microscale thermophoresis (MST); type: binding; settings: 20 nM labeled 14-3-3ε, 1 μM cognate peptide (EC80), 2% DMSO, 25°C; mean of three independent experiments
T1 construct: A synthetic gene construct encoding full length human 14-3-3ε; made in house; host or cells: E. coli BL21(DE3)
T1 sequence (P62258 1-255): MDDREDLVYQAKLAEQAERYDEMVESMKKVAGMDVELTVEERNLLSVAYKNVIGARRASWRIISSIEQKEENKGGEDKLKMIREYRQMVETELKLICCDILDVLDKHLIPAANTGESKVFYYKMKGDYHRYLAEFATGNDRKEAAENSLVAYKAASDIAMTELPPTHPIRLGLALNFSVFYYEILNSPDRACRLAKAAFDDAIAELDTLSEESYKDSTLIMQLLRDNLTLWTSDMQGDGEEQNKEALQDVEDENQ
Method: (§1) Protein purity was visualized by running SDS-PAGE.
The 14-3-3ε protein was labeled with NT-647-NHS fluorescent dye using the Monolith Protein Labeling Kit (Cat# MO-L011, NanoTemper Technologies). Assays were carried out in 10 mM Hepes, 150 mM NaCl and 0.01% Tween 20. For the direct binding assay, 10 μL of labeled protein at a final concentration of 20 nM was mixed with 10 μL of cognate peptide. For the competitive assay, 10 μL of labeled protein at a final concentration of 20 nM was mixed with 1 μM of cognate peptide at the EC80 concentration determined by prior titration using a 16-point serial dilution by direct-binding MST. […] An initial ‘‘CapillaryScan’’ was performed to scan for fluorescence across the length of the capillary tray to determine the exact position of each capillary before the MST measurement was started. Test compound in 2% final DMSO concentration was assayed at 16 different concentrations by serial dilution, and data were analyzed using NanoTemper analysis software with ‘‘T-jump + Thermophoresis’’ settings. The change in thermophoresis between different experimental conditions was expressed as the change in the normalized fluorescence (ΔFnorm), which is defined as Fhot/Fcold (F-values correspond to average fluorescence values between defined areas in the curve under steadystate conditions under control (Fcold) or experimental (Fhot) conditions). […]

9J10/14-3-3ε interaction [2] = molecular target: T1, 9J10/14-3-3ε interaction; test: FP competition, TAMRA-p9J10Min binding to 14-3-3ε; settings: 10nM TAMRA-p9J10Min, His-14-3-3ε 1.5 μM, top concentration 200 μM, 0.4% DMSO; mean of three independent experiments; read-out: IC50, FP
Method: Protein purity was visualized by running SDS-PAGE. […] Compound dilution plates, black 384 well NBS assay plates and tip racks were loaded into the Cytomat as indicated by the scheduling software. […] Test compounds were diluted to 3X final concentration in the dilution plates. 10 μL of diluted compound was added into each well of the assay plate followed by 10μL of […]-3-3ε and 10μL of TAMRA-p9J10Min. Plates were incubated at room temperature for 20 min on the robot's deck or in the Cytomat before the Fluorescence Polarisation was read using the BMG PheraStar plate reader. Test compounds were assayed in triplicate. […] DMSO controls were run alongside all experimental compounds and % inhibition normalised to these controls. All other experimental conditions were as described above.

[3] = system: polo-box domain of human polo-like kinase 1 (PLK1); test: selectivity: substrate recognition by polo-box domain; type: binding
14-3-3ε = molecular target: T2, 14-3-3ε (Homo sapiens, UniProt P62258); test: STD-NMR; type: binding; settings: 100 μM 9J10, 10 μM 14-3-3ε, 2% d6-DMSO
T2 sequence (P62258 1-255): T1 sequence (P62258 1-255)
Method: as §1
1H NMR and STD spectra were recorded with a Bruker Avance-III HD 600 MHz at 298 K. Bruker TopSpin software was used to acquire and process the NMR data. NMR samples were prepared in D2O, with 100 μM 9J10 peptide (LNRTPGRRRN(p-Serine)N-acid) (Sigma-Aldrich), and 10 μM 14-3-3ε protein. For STD NMR measurements standard Bruker pulse sequence stddiffesgp.3 was used, the on-resonance frequency was set to be 0 ppm, and the off-resonance frequency at −40 ppm. The number of scans was typically 64, both the saturation pulses and relaxation delay were set to be 5 s and the power of the shaped pulse for saturation was set at 40 dB. Experiments with the varying concentrations of CU7218 were performed by mixing appropriate volume of the compound in DMSO and the final DMSO concentration was adjusted to 2.0% by using d6-DMSO.

IC50 (9J10/14-3-3ε interaction [1]): 26.5 µM
IC50 (9J10/14-3-3ε interaction [2]): 111 µM
disruption of substrate recognition by PLK1 polo-box domain [3]: failed to disrupt substrate recognition
lowest CU7218 concentration markedly reducing the 9J10 STD signal (14-3-3ε; tested 50-250 μM): ≥ 150 µM
SMILES: Cc1c(C(=O)O)sc2[nH]c(=S)[nH]c(=O)c12 [CU7218]
9J10 STD signal intensity with CU7218 (14-3-3ε): markedly reduced the 9J10 STD signal intensity
